Where two headings read alike, the source gives them in different places.
Assay: Half-life of ADR destruction by UVA light in the presence of test compounds (decrease in absorbance at 480 nm)
Type: physicochemical
[1] = UVA light, 100 μM test compound with 0.5 μM riboflavin
[2] = UVA light, 100 μM test compound alone

Compound | Half-Life of ADR Destruction, 100 μM Test Compound and 0.5 μM Riboflavin [1] | Half-Life of ADR Destruction, 100 μM Test Compound [2] | further results
3-Amino Phenylsulfone | 8.60 min |  | 
4-Ethoxyphenyl-2-furyl ketone | 11.2 min | 12.5 min | 
c1ccc2c(c1)CCCN2 [1,2,3,4-Tetrahydroquinoline] | 100.3 min |  | 
Cn1c(=O)c2[nH]c(=O)[nH]c2n(C)c1=O [1,3-Dimethyl Uric acid] | 21.5 min | 75.3 min | 
CC(=O)c1ccc2c(c1)OCCO2 [1,4-Benzodioxane-6-yl methyl ketone] | 33.4 min | 43.0 min | 
O=C1c2c(O)cccc2Cc2cccc(O)c21 [1,8-Dihydroxyanthrone] | 30.1 min | 27.4 min | 
CC(=O)c1cccc2ccccc12 [1-Acetonaphthone] | 6.54 min | 6.69 min | 
Nc1cccc2c1Cc1ccccc1C2 [1-Amino-9,10-dihydroanthracene] | 75.3 min | 75.3 min | 
O=c1c2ccccc2oc2ncccc12 [1-Azaxanthrone] | 2.60 min | 2.87 min | 
Cn1cccc1 [1-Methyl Pyrrole] | 27.4 min |  | 
Cn1c(=O)[nH]c2[nH]c(=O)[nH]c2c1=O [1-Methyl Uric acid] | 33.4 min |  | 
Cn1cc(C[C@H](N)C(=O)O)c2ccccc21 [1-Methyl-tryptophan] | 9.71 min |  | 
OCc1cccc2ccccc12 [1-Naphthalenemethanol] | 50.2 min |  | 
Cn1ccc2ccccc21 [1-methyl Indole] | 33.5 min |  | 
c1ccc2c3c([nH]c2c1)CCCCCC3 [2,3-Cyclooctenoindole] | 15.8 min |  | 
Cc1[nH]c2ccccc2c1C [2,3-Dimethyl Indole] | 20.1 min |  | 
COc1cc(OC)c(OC)cc1C=CC(=O)O [2,4,5-Trimethoxy Cinnamic Acid] | 18.8 min |  | 
CC(C)(C)c1cc(C(C)(C)C)c(N)c(C(C)(C)C)c1 [2,4,6-Tri-tert-butyl Aniline] | 43.0 min |  | 
Nc1c(-c2ccccc2)cc(-c2ccccc2)cc1-c1ccccc1 [2,4,6-Triphenylaniline] | 33.5 min |  | 
Nc1ccc(F)cc1F [2,4-Difluoro Aniline] | 7.92 min |  | 
Cc1c[nH]c(C)c1 [2,4-Dimethyl Pyrrole] | 20.1 min |  | 
CCc1c(C)c[nH]c1C [2,4-Dimethyl-3-ethyl Pyrrole] | 20.1 min |  | 
Nc1ccc([N+](=O)[O-])cc1[N+](=O)[O-] [2,4-Dinitro Aniline] |  |  | Half-Life of ADR Destruction, 100 μM Test Compound: 75.3 min; Half-Life of ADR Destruction, 100 μM Test Compound and 0.5 μM Riboflavin: 50.2 min

Compound | Half-Life of ADR Destruction, 100 μM Test Compound and 0.5 μM Riboflavin [1] | Half-Life of ADR Destruction, 100 μM Test Compound [2] | further results
Nc1ccc(N)c(S(=O)(=O)O)c1 [2,5-Diamino Benzene sulfonic acid] | 27.4 min |  | 
O=S(=O)(O)c1cc(O)ccc1O [2,5-Dihydroxy Benzenesulfonic acid] | 25.1 min |  | 
Cc1ccc2[nH]c(C)cc2c1 [2,5-Dimethyl Indole] | 5.79 min | 17.7 min | 
Cc1ccc(C)[nH]1 [2,5-Dimethyl Pyrrole] | 9.12 min |  | 
Nc1c(F)cccc1F [2,6-Difluoro Aniline] | 27.4 min |  | 
Cc1cc2cccc(C)c2[nH]1 [2,7-Dimethyl Indole] | 6.27 min |  | 
OCCOc1ccc2ccccc2c1 [2-(2-naphthyloxy) Ethanol] | 2.95 min | 30.1 min | 
O=C(O)CSc1ccc2ccccc2c1 [2-(2-naphthylthio) Acetic acid] | 8.14 min | 9.41 min | 
COc1ccc(C(=O)c2cccs2)cc1 [2-(4-Methoxybenzoyl)-thiophene] | 8.36 min | 9.41 min | 
CC(=O)c1ccc2ccccc2c1 [2-Acetonaphthone] | 7.92 min | 8.36 min | 
CC(=O)c1ccc[nH]1 [2-Acetyl Pyrrole] | 30.1 min | 50.2 min | 
CC(=O)c1cccn1C [2-Acetyl-1-methyl Pyrrole] | 50.2 min |  | 
Nc1ccccc1S(=O)(=O)O [2-Amino Benzenesulfonic acid] | 20.1 min |  | 
Nc1ccccc1CO [2-Amino Benzyl Alcohol] | 3.96 min |  | 
NCc1ccccc1N [2-Amino Benzylamine] | 14.3 min |  | 
Nc1ccccc1CCO [2-Amino Phenylethyl Alcohol] | 13.7 min |  | 
Cc1cccc(CO)c1N [2-Amino-3-Methyl Benzyl Alcohol] | 18.8 min |  | 
Cc1ccc(N)c(CO)c1 [2-Amino-5-Methyl Benzyl Alcohol] | 24.5 ± 8.0 min |  | 
NC(=O)c1ccccc1N [2-Aminobenzamide] | 33.5 min |  | 
Nc1ccccc1C(=O)c1ccccc1 [2-Aminobenzophenone] |  |  | Half-Life of ADR Destruction, 100 μM Test Compound and 0.5 μM Riboflavin: 16.7 min
Nc1ccc2ccccc2c1 [2-Aminonaplithalene] |  |  | Half-Life of ADR Destruction, 100 μM Test Compound and 0.5 μM Riboflavin: 20.1 min
O=C(O)c1cc2ccccc2o1 [2-Benzofurancarboxylic acid] | 50.2 min |  | 
O=C(O)c1ccccc1C(=O)c1ccccc1 [2-Benzophenone-carboxylic acid] |  |  | Half-Life of ADR Destruction, 100 μM Test Compound: 50.2 min

Compound | Half-Life of ADR Destruction, 100 μM Test Compound and 0.5 μM Riboflavin [1] | Half-Life of ADR Destruction, 100 μM Test Compound [2] | further results
O=C(c1ccccc1)c1ccc[nH]1 [2-Benzoyl pyrrole] | 33.5 min | 50.2 min | 
O=C(c1ccccc1)c1ccccn1 [2-Benzoylpyridine] | 100.3 min | 100.3 min | 
O=C(c1ccccc1)c1cccs1 [2-Benzoylthiophene] | 8.85 min | 9.41 min | 
O=C(O)c1ccc2c(c1)-c1ccccc1-2 [2-Biphenylene Carboxylic Acid] | 15.8 min |  | 
CCCCc1ccccc1N [2-Butyl Aniline] | 10.2 min |  | 
CCc1ccc[nH]1 [2-Ethyl Pyrrole] | 10.0 min |  | 
Nc1ccccc1F [2-Fluoro Aniline] | 8.36 min |  | 
O=C(c1ccco1)c1cccs1 [2-Furyl-2-thienyl ketone] |  | 7.00 min | 
Oc1ccc2c(c1)[nH]c1ccccc12 [2-Hydroxy Carbazole] |  |  | Half-Life of ADR Destruction, 100 μM Test Compound and 0.5 μM Riboflavin (UVA light, with 0.5 μM riboflavin, +4% DMSO): 75.3 ± 35.4 min
N[C@@H](Cc1ccccc1O)C(=O)O [2-Hydroxy Phenylalanine] | 15.1 min |  | 
Oc1ccc2ccccc2c1 [2-Hydroxynaphthalene] | 23.2 min | 30.1 min | 
COc1ccccc1CN [2-Methoxy Benzylamine] | 43.0 min |  | 
COc1ccccc1C=CC=O [2-Methoxy Cinnamaldehyde] | 50.2 min |  | 
COc1ccccc1O [2-Methoxy Phenol] | 50.2 min | 50.2 min | 
COc1ccc2ccccc2c1CO [2-Methoxy-1-naphthalenemethanol] | 4.43 min |  | 
COc1[nH]c2ccccc2c1CN(C)C [2-Methoxy-3-(dimethylaminomethyl) indole] | 13.7 min | 75.3 min | 
COc1ccc2[nH]c3ccccc3c(=O)c2c1 [2-Methoxy-9(10H) Acridone] |  |  | Half-Life of ADR Destruction, 100 μM Test Compound: 23.2 min; Half-Life of ADR Destruction, 100 μM Test Compound and 0.5 μM Riboflavin: 16.7 min
COc1ccccc1C(C)CO (stereo not drawn) [2-Methoxy-β-Methyl-Phenylethyl Alcohol] | 8.14 min | 43.0 min | 
COc1ccc2ccccc2c1C(=O)O [2-Methoxynaphthalene-1-carboxylic acid] | 2.95 min | 33.5 min | 
Cc1cc2ccccc2[nH]1 [2-Methyl Indole] | 7.00 min |  | 
Cc1[nH]c2ccccc2c1CC(=O)O [2-Methylindole-3-acetic acid] | 4.57 ± 2.92 min |  | 
O=Cc1ccc2ccccc2c1 [2-Naphthaldehyde] | 5.68 min | 6.14 min | 

Source: US20010056085A1, “Methods of using vesicant drug formulations” (priority 1996, published 2001)
